Test results reported in ChEMBL document CHEMBL1135886, “Substituted diphenyl sulfides as selective serotonin transporter ligands: synthesis and in vitro evaluation” (J Med Chem, 2002).

Columns and labels:
[1] = target: Sodium-dependent dopamine transporter (Rattus norvegicus, UniProt P23977); assay: Inhibition of [3H]-GBR-12,935 binding to dopamine transporter (DAT) of rat striatal membranes; format: cell membranes, Membrane
[2] = target: Norepinephrine transporter (Rattus norvegicus, UniProt Q9WTR4); assay: Inhibition of [3H]nisoxetine binding to norepinephrine transporter (NET) of rat cortical homogenates
Chain of Norepinephrine transporter (Q9WTR4 whole entry): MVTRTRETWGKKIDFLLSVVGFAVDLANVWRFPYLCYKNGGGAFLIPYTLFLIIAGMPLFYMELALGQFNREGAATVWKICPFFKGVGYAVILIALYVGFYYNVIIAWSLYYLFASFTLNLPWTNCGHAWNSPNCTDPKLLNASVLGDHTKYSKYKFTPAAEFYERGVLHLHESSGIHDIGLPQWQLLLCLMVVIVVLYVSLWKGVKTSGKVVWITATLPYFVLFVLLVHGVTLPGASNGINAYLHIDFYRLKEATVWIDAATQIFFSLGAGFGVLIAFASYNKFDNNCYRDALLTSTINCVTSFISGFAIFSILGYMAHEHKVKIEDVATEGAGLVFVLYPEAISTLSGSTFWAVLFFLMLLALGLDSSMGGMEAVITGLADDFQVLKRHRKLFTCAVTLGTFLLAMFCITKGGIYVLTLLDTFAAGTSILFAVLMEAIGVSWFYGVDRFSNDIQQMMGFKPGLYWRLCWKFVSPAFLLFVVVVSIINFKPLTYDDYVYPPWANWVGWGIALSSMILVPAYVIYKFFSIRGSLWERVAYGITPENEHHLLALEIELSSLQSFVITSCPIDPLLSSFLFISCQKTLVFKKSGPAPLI

[3] = target: Sodium-dependent serotonin transporter (Rattus norvegicus, UniProt P31652); assay: Inhibition of [3H]paroxetine binding to serotonin transporter (SERT) of rat cortical membrane
Chain of Sodium-dependent serotonin transporter (P31652 whole entry): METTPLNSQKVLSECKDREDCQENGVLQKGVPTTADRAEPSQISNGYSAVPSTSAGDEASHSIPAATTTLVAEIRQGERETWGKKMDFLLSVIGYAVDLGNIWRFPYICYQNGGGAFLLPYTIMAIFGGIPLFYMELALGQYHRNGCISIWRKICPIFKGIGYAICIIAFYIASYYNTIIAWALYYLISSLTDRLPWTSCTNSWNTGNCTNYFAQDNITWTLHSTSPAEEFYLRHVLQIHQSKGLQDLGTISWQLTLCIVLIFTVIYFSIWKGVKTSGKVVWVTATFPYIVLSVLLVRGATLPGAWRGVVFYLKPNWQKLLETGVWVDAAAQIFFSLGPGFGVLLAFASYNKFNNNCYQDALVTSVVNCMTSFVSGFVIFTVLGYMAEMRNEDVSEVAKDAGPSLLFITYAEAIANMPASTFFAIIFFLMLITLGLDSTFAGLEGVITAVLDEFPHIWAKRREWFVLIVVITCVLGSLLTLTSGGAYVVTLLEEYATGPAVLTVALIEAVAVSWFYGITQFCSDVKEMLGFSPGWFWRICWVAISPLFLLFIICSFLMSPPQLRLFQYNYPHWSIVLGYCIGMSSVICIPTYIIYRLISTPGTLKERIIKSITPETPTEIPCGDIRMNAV

Chain of Sodium-dependent dopamine transporter (P23977 whole entry): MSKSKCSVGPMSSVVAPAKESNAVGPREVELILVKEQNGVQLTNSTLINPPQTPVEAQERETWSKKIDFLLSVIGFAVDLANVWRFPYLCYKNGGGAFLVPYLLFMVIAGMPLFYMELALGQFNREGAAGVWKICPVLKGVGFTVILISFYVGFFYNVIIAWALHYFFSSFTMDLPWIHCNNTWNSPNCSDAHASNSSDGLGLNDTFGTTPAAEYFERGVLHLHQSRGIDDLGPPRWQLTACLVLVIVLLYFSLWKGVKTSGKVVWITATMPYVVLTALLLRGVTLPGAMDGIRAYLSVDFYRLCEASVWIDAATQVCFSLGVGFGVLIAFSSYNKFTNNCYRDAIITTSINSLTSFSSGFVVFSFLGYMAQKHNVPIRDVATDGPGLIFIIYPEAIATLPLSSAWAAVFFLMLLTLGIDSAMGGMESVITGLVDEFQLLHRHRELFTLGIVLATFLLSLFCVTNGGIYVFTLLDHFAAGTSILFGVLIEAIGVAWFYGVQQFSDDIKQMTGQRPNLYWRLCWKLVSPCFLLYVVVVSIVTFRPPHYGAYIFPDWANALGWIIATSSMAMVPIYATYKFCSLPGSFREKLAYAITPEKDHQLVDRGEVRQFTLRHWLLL

| SMILES | Ki [1] [nM] | Ki [2] [nM] | Ki [3] [nM] |
| --- | --- | --- | --- |
| CN(C)C(=O)c1ccccc1Sc1ccc(F)cc1C=O | > 1000 | > 1000 | 695 |
| CN(CCF)Cc1ccccc1Sc1ccc(I)cc1N | > 1000 | > 1000 | 19.3 |
| CN(C)Cc1ccccc1Sc1ccc(F)cc1CO | 339 | 28.4 | 7.96 |
| CN(C)Cc1ccccc1Sc1ccc(Br)cc1N | 171 | 107 | 2.23 |
| CNCc1ccccc1Sc1ccc(I)cc1CO | 760 | 12.8 | 0.98 |
| CN(C)C(=O)c1ccccc1Sc1ccc(Br)cc1C=O | > 1000 | > 1000 | > 1000 |

Second part, the compound after the results:

| Ki [1] [nM] | Ki [2] [nM] | Ki [3] [nM] | SMILES |
| --- | --- | --- | --- |
| > 1000 | 326 | 2.75 | COCc1cc(Br)ccc1Sc1ccccc1CN(C)C |
| > 1000 | 80.2 | 53.3 | CN(C)Cc1ccccc1Sc1ccc(/C=C/I)cc1N |
| 171 | 107 | 1.49 | CNCc1ccccc1Sc1ccc(Br)cc1N |
| 950 | 5.8 | 1.92 | CN(C)Cc1ccccc1Sc1ccc(Br)cc1CO |
| > 1000 | 325 | 1.65 | Cc1ccc(Sc2ccccc2CN(C)C)c(N)c1 |
| > 1000 | 683 | – | CN(C)Cc1ccccc1Sc1ccc(I)cc1N |
| 818 | 714 | 1.25 | CNCc1ccccc1Sc1ccc(I)cc1N |
| 172 | 212 | 2.5 | COCc1cc(I)ccc1Sc1ccccc1CN(C)C |
